Test system: BALB/c mouse implanted with ascitic sarcoma (S-180), CP treated
Conditions: for Hb / Platelet Count (×10^3/mcl) / RBC Count (×10^6/mcl) / WBC Difference Count (%) Lymphocytes / WBC Difference Count (%) Polymorph / WBC Total Count (×10^3/mcl): CP +: CP 150 mg/kg ip day 11, coded drug 100 mg/kg (vehicle for CP alone) po day 1-15, blood day 16; for Difference in Weight (g) from Day 1 to 16: CP +: S-180 bearing antigen-challenged mice, CP 150 mg/kg ip day 11, coded drug 100 mg/kg (vehicle for CP alone) po day 1-15; for change in body weight / change in HA antibody titers / change in HL antibody titers / change in hemoglobin content / change in platelet counts / change in red cell counts / change in white cell differential counts / change in white cell total counts: vs group IV (tumor +, CP +, vehicle), drug po day 1-15, CP 150 mg/kg ip day 11, ANOVA; for change in HA antibody titers / change in HL antibody titers / change in hemoglobin content / change in platelet counts / change in red cell counts / change in white cell differential counts / change in white cell total counts: day 16
[1] = Tumor +, CP +: CP 150 mg/kg ip day 11, coded drug 100 mg/kg (vehicle for CP alone) po day 1-15, serum day 16, mean +/- SD
[2] = tumor-bearing CP-treated mice, vs CP alone

Compound	Hb (Tumor +, mean +/- SD)	Platelet Count (×10^3/mcl) (Tumor +, mean +/- SD)	RBC Count (×10^6/mcl) (Tumor +, mean +/- SD)	WBC Difference Count (%) Lymphocytes (Tumor +, mean +/- SD)	WBC Difference Count (%) Polymorph (Tumor +, mean +/- SD)	WBC Total Count (×10^3/mcl) (Tumor +, mean +/- SD)	HA Titre (Log2) [1]	Difference in Weight (g) from Day 1 to 16 (Tumor +, mean +/- SD)	effect on CP-induced immunosuppression / immunostimulatory activity (conclusion) [2]	effect on CP-induced myelosuppression (conclusion) [2]	change in body weight	change in HA antibody titers	change in HL antibody titers	change in hemoglobin content	change in platelet counts	change in red cell counts	change in white cell differential counts	change in white cell total counts	CF Titre (Log2) [1]	other activity indicated (conclusion) [2]
O=S(=O)(O)CCS [Mesna]	14.08 ± 1.689 g/dL	608.83 +/− 239.813 ×10^3/mcl	4.12 +/− 0.609 ×10^6/mcl	62.42 +/− 9.902%	37.58 +/− 9.902%	3.67 +/− 1.218 ×10^3/mcl	2.17 +/− 0.408 Log2	-2.5 ± 1.049 g	no effect on body weight and CP-induced myelo and immunosuppression	no effect on body weight and CP-induced myelo and immunosuppression	no significant change	no significant change	no significant change	no significant change	no significant change	no significant change	no significant change	no significant change	–	–
O=C1O[C@H]([C@@H](O)CO)C(O)=C1O [Drug T, Vitamin C]	15.37 ± 1.481 g/dL	822.67 +/− 234.142 ×10^3/mcl	4.25 +/− 0.661 ×10^6/mcl	63.30 +/− 6.266%	36.70 +/− 6.266%	7.13 +/− 0.949 ×10^3/mcl	5.33 +/− 0.516 Log2	-2.67 ± 1.751 g	protective effect on CP-induced myelo and immunosuppression	protective effect on CP-induced myelo and immunosuppression	no significant change	significantly increased	significantly increased	significantly increased	No significant change	No significant change	no significant change	significantly increased	5.67 +/− 0.516 Log2	mild hematinic activity

From patent publication US20040033273A1, “Withasol and methods of use” (AyurCore, Inc., priority 2001, published 2004)
